Test results reported in PubChem BioAssay AID1963870 (Molecular Pharmacology Branch, DTP, NCI, 2024).

System: 292921-168-R-J2-PDC KRAS tumor spheroid viability
Assay: Anticancer human tumor 292921-168-R-J2-PDC patient-derived pancreatic carcinoma cell line growth inhibition [KRAS2]
Details: spheroids with HUVEC and MSC; for IC50: curve of first compound; for viability, T/C: stronger effect = lower value; active means viability on the fitted dose curve at most 10% of control; inactive means the rest
Outline: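 KRAS-mutant tumor cells were grown as spheroids with HUVEC endothelial cells and human MSCs as stroma. Targeted agents were tested alone and with KRAS pathway inhibitors. Doses started at or near clinical Cmax, or 10 microM, descending half-log.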

[1] = second compound 0.1 µM, first compound 0.000316 µM
[2] = second compound 0.1 µM, first compound 0.001 µM
[3] = second compound 0.1 µM, first compound 0.00316 µM
[4] = second compound 0.1 µM, first compound 0.01 µM
[5] = second compound 0.1 µM, first compound 0.0316 µM
[6] = second compound 0.1 µM, first compound 0.1 µM
[7] = second compound 0.316 µM, first compound 0.000316 µM
[8] = second compound 0.316 µM, first compound 0.001 µM
[9] = second compound 0.316 µM, first compound 0.00316 µM
[10] = second compound 0.316 µM, first compound 0.01 µM
[11] = second compound 0.316 µM, first compound 0.0316 µM
[12] = second compound 0.316 µM, first compound 0.1 µM
[13] = second compound 1 µM, first compound 0.000316 µM
[14] = second compound 1 µM, first compound 0.001 µM
[15] = second compound 1 µM, first compound 0.00316 µM
[16] = second compound 1 µM, first compound 0.01 µM
[17] = second compound 1 µM, first compound 0.0316 µM
[18] = second compound 1 µM, first compound 0.1 µM
[19] = second compound 3.16 µM, first compound 0.000316 µM
[20] = second compound 3.16 µM, first compound 0.001 µM
[21] = second compound 3.16 µM, first compound 0.00316 µM
[22] = second compound 3.16 µM, first compound 0.01 µM
[23] = second compound 3.16 µM, first compound 0.0316 µM
[24] = second compound 3.16 µM, first compound 0.1 µM
[25] = second compound 10 µM, first compound 0.000316 µM
[26] = second compound 10 µM, first compound 0.001 µM
[27] = second compound 10 µM, first compound 0.00316 µM
[28] = second compound 10 µM, first compound 0.01 µM
[29] = second compound 10 µM, first compound 0.0316 µM
[30] = second compound 10 µM, first compound 0.1 µM
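Further: drug exposure lasted seven days after spheroids formed for three days.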
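Wherever viability, T/C is given: percent of DMSO vehicle control viability which is 100%.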

CN(C)C/C=C/C(=O)Nc1cc2c(Nc3ccc(F)c(Cl)c3)ncnc2cc1O[C@H]1CCOC1 + CNCc1ccccc1-c1csc(C(C)Nc2nc(C)nc3cc(OC)c(OC)cc23)c1
1.93 nM: IC50 (second compound 3.16 µM)
< 0.316 nM: IC50 (second compound 10 µM)
> 100 nM: IC50 (second compound 0.1 µM) | IC50 (second compound 0.316 µM)
48.9 nM: IC50 (second compound 1 µM)
active: viability, T/C [25] 0.13% | viability, T/C [26] 0.13% | viability, T/C [27] 0.09% | viability, T/C [28] 0.08% | viability, T/C [29] 0.13% | viability, T/C [30] 0.17%
inactive: viability, T/C [1] 90.9% | viability, T/C [2] 86.3% | viability, T/C [3] 72.4% | viability, T/C [4] 70.3% | viability, T/C [5] 64.5% | viability, T/C [6] 57.5% | viability, T/C [7] 82.4% | viability, T/C [8] 80.6% | viability, T/C [9] 70.6% | viability, T/C [10] 71.1% | viability, T/C [11] 58% | viability, T/C [12] 55% | viability, T/C [13] 74.4% | viability, T/C [14] 62% | viability, T/C [15] 60% | viability, T/C [16] 59.6% | viability, T/C [17] 56.1% | viability, T/C [18] 43.7% | viability, T/C [19] 105% | viability, T/C [20] 91.1% | viability, T/C [21] 0.17% | viability, T/C [22] 0.11% | viability, T/C [23] 74.7% | viability, T/C [24] 1.26%

COc1cc(Nc2ncc3c(n2)-c2ccc(Cl)cc2C(c2c(F)cccc2OC)=NC3)ccc1C(=O)O + C=CC(=O)N1CCN(c2nc(=O)n(-c3c(C)ccnc3C(C)C)c3nc(-c4c(O)cccc4F)c(F)cc23)C(C)C1
< 31.6 nM: IC50 (second compound 0.1 µM) | IC50 (second compound 0.316 µM) | IC50 (second compound 1 µM) | IC50 (second compound 3.16 µM) | IC50 (second compound 10 µM)
inactive: viability, T/C [5] 33.5% | viability, T/C [6] 34.2% | viability, T/C (second compound 0.1 µM, first compound 0.316 µM) 41.3% | viability, T/C (second compound 0.1 µM, first compound 1 µM) 40.8% | viability, T/C (second compound 0.1 µM, first compound 3.16 µM) 34.8% | viability, T/C (second compound 0.1 µM, first compound 10 µM) 26.4% | viability, T/C [11] 35.9% | viability, T/C [12] 33.3% | viability, T/C (second compound 0.316 µM, first compound 0.316 µM) 37.4% | viability, T/C (second compound 0.316 µM, first compound 1 µM) 40.2% | viability, T/C (second compound 0.316 µM, first compound 3.16 µM) 40.3% | viability, T/C (second compound 0.316 µM, first compound 10 µM) 29.9% | viability, T/C [17] 41.8% | viability, T/C [18] 35.6% | viability, T/C (second compound 1 µM, first compound 0.316 µM) 40.1% | viability, T/C (second compound 1 µM, first compound 1 µM) 39.4% | viability, T/C (second compound 1 µM, first compound 3.16 µM) 32.3% | viability, T/C (second compound 1 µM, first compound 10 µM) 30.6% | viability, T/C [23] 36.8% | viability, T/C [24] 31.5% | viability, T/C (second compound 3.16 µM, first compound 0.316 µM) 34.8% | viability, T/C (second compound 3.16 µM, first compound 1 µM) 38% | viability, T/C (second compound 3.16 µM, first compound 3.16 µM) 35.2% | viability, T/C (second compound 3.16 µM, first compound 10 µM) 29.5% | viability, T/C [29] 22.9% | viability, T/C [30] 30.9% | viability, T/C (second compound 10 µM, first compound 0.316 µM) 35.2% | viability, T/C (second compound 10 µM, first compound 1 µM) 34.5% | viability, T/C (second compound 10 µM, first compound 3.16 µM) 31.8% | viability, T/C (second compound 10 µM, first compound 10 µM) 30%

CC(=O)Nc1cccc(-n2c(=O)n(C3CC3)c(=O)c3c(Nc4ccc(I)cc4F)n(C)c(=O)c(C)c32)c1 + CC1OCC2(CCN(c3cnc(Sc4ccnc(N)c4Cl)c(N)n3)CC2)C1N
inactive: viability, T/C (second compound 0.1 µM, first compound 0.0001 µM) 48.8% | viability, T/C [1] 28.9% | viability, T/C [2] 18.2% | viability, T/C [3] 14.6% | viability, T/C [4] 10.5% | viability, T/C (second compound 0.316 µM, first compound 0.0001 µM) 35.4% | viability, T/C [7] 27.8% | viability, T/C [8] 15.6% | viability, T/C [9] 11.9% | viability, T/C (second compound 1 µM, first compound 0.0001 µM) 30.1% | viability, T/C [13] 17.7% | viability, T/C [14] 13.1% | viability, T/C (second compound 3.16 µM, first compound 0.0001 µM) 22.9% | viability, T/C [19] 15.7% | viability, T/C [20] 11.9% | viability, T/C (second compound 10 µM, first compound 0.0001 µM) 18.3% | viability, T/C [25] 14.1%
active: viability, T/C [5] 8.15% | viability, T/C [10] 9.03% | viability, T/C [11] 7.3% | viability, T/C [15] 9.44% | viability, T/C [16] 7.15% | viability, T/C [17] 6.35% | viability, T/C [21] 8.12% | viability, T/C [22] 7.15% | viability, T/C [23] 5.35% | viability, T/C [26] 9.59% | viability, T/C [27] 7.02% | viability, T/C [28] 5.62% | viability, T/C [29] 4.49%
< 0.1 nM: IC50 (second compound 0.1 µM) | IC50 (second compound 0.316 µM) | IC50 (second compound 1 µM) | IC50 (second compound 3.16 µM) | IC50 (second compound 10 µM)
